Experimental data from the supplement of paper PMC10307832.

How the values were obtained:
Experiment in all cases: relative viability (nuclei count vs DMSO), 5 days (fraction); higher = more cells survive
MK-8033 + Navitoclax = compound: Cn1cc(-c2cnc3ccc4ccc(CS(=O)(=O)NCc5ccccn5)cc4c(=O)c3c2)cn1 [MK-8033] + CC1(C)CCC(c2ccc(Cl)cc2)=C(CN2CCN(c3ccc(C(=O)NS(=O)(=O)c4ccc(N[C@H](CCN5CCOCC5)CSc5ccccc5)c(S(=O)(=O)C(F)(F)F)c4)cc3)CC2)C1 [Navitoclax] (partner 0.5 µM)
Outline: (§1)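 Medians of duplicate plates are given as relative viability. That measure is the nuclei count in treated wells divided by the count in vehicle wells. Counts were taken on 4× images of lung cancer cell lines in 1536-well plates, 5 days after pin-tool dosing the day after seeding with one drug alone or a fixed anchor-drug dose plus five library-drug doses (not always all listed) in √10 steps.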

Irinotecan + Tozasertib = compound: CCc1c2c(nc3ccc(OC(=O)N4CCC(N5CCCCC5)CC4)cc13)-c1cc3c(c(=O)n1C2)COC(=O)[C@]3(O)CC [Irinotecan] + Cc1cc(Nc2cc(N3CCN(C)CC3)nc(Sc3ccc(NC(=O)C4CC4)cc3)n2)n[nH]1 [Tozasertib] (partner 0.1 µM)
Outline: as §1

Irinotecan + Bortezomib = compound: CCc1c2c(nc3ccc(OC(=O)N4CCC(N5CCCCC5)CC4)cc13)-c1cc3c(c(=O)n1C2)COC(=O)[C@]3(O)CC [Irinotecan] + CC(C)C[C@H](NC(=O)[C@H](Cc1ccccc1)NC(=O)c1cnccn1)B(O)O [Bortezomib] (partner 0.002 µM)
Outline: as §1

MK-8033 + Pemetrexed = compound: Cn1cc(-c2cnc3ccc4ccc(CS(=O)(=O)NCc5ccccn5)cc4c(=O)c3c2)cn1 [MK-8033] + Nc1nc2[nH]cc(CCc3ccc(C(=O)N[C@@H](CCC(=O)O)C(=O)O)cc3)c2c(=O)[nH]1 [Pemetrexed] (partner 0.2 µM)
Outline: as §1

Cell Line | relative viability (MK-8033 + Navitoclax; first compound 0.02 µM) | relative viability (MK-8033 + Navitoclax; first compound 0.06325 µM) | relative viability (MK-8033 + Navitoclax; first compound 0.2 µM) | relative viability (MK-8033 + Navitoclax; first compound 0.6325 µM) | relative viability (MK-8033 + Navitoclax; first compound 2 µM) | relative viability (Irinotecan + Tozasertib; first compound 0.6325 µM) | relative viability (Irinotecan + Tozasertib; first compound 2 µM) | relative viability (Irinotecan + Tozasertib; first compound 6.325 µM) | relative viability (Irinotecan + Tozasertib; first compound 20 µM) | relative viability (Irinotecan + Bortezomib; first compound 0.6325 µM) | relative viability (Irinotecan + Bortezomib; first compound 2 µM) | relative viability (Irinotecan + Bortezomib; first compound 6.325 µM) | relative viability (Irinotecan + Bortezomib; first compound 20 µM) | relative viability (MK-8033 + Pemetrexed; first compound 0.02 µM) | relative viability (MK-8033 + Pemetrexed; first compound 0.06325 µM) | relative viability (MK-8033 + Pemetrexed; first compound 0.2 µM) | relative viability (MK-8033 + Pemetrexed; first compound 0.6325 µM) | relative viability (MK-8033 + Pemetrexed; first compound 2 µM)
HARA | 1.1 | 1.14 | 1.15 | 1.1 | 1.16 | 0.0659 | 0.12 | 0.107 | 0.103 | 0.955 | 0.291 | 0.177 | 0.156 | 0.289 | 0.212 | 0.227 | 0.264 | 0.229
H3255 | 0.577 | 0.446 | 0.441 | 0.418 | 0.485 | 0.513 | 0.501 | 0.375 | 0.437 | 0.432 | 0.529 | 0.299 | 0.392 | 0.56 | 0.49 | 0.571 | 0.582 | 0.565
EKVX | 0.939 | 0.923 | 0.916 | 0.82 | 0.96 | 0.336 | 0.258 | 0.303 | 0.177 | 1.08 | 0.772 | 0.394 | 0.193 | 0.373 | 0.344 | 0.337 | 0.34 | 0.424
NCI-H1666 | 0.959 | 0.852 | 0.951 | 1.1 | 0.924 | 0.552 | 0.543 | 0.569 | 0.26 | 0.608 | 0.419 | 0.414 | 0.214 | 0.784 | 0.775 | 0.915 | 0.788 | 0.772
NCI-H1915 | 0.812 | 0.699 | 0.801 | 0.811 | 0.783 | 0.312 | 0.27 | 0.192 | 0.173 | 0.537 | 0.445 | 0.24 | 0.148 | 0.51 | 0.491 | 0.497 | 0.472 | 0.428
HCC-366 | 1.02 | 1.11 | 1.06 | 1.01 | 1.07 | 0.0963 | 0.109 | 0.0553 | 0.0875 | 0.731 | 0.361 | 0.0441 | 0.0691 | 0.151 | 0.222 | 0.141 | 0.196 | 0.35
EPLC-272H | 1.12 | – | 1.07 | 0.853 | 1.08 | 0.165 | 0.252 | 0.258 | 0.25 | 0.744 | 0.635 | 0.317 | 0.217 | 0.359 | 0.357 | 0.345 | 0.376 | 0.313
RERF-LC-KJ | 0.972 | 0.867 | 0.756 | 0.844 | 0.882 | 0.444 | 0.438 | 0.358 | 0.179 | – | 1.16 | 0.563 | 0.468 | 0.459 | 0.467 | 0.501 | 0.462 | 0.471
NCI-H2126 | 0.836 | 0.838 | 0.861 | 0.832 | 0.827 | – | 0.813 | 0.46 | 0.206 | – | 1.08 | 0.632 | 0.34 | 0.674 | 0.661 | 0.613 | 0.689 | 0.649
NCI-H1355 | 0.911 | 0.897 | 0.894 | 0.981 | 0.928 | – | 0.486 | 0.311 | 0.227 | 1.02 | 1.12 | 0.561 | 0.265 | 1.03 | 0.996 | 0.965 | 1.05 | 1
A-427 | 0.967 | 0.869 | 0.891 | 0.912 | 0.868 | – | 0.159 | 0.216 | 0.182 | – | 0.427 | 0.198 | 0.187 | 0.936 | 0.976 | 0.941 | 0.946 | 1.05
NCI-H3122 | 1.03 | 1 | 1.03 | 1.01 | 1.05 | 0.461 | 0.339 | 0.2 | 0.0585 | 1.05 | 0.824 | 0.252 | 0.259 | 0.201 | 0.201 | 0.195 | 0.188 | 0.198
NCI-H1437 | 1.03 | 1.03 | 1.01 | 1 | 0.953 | 0.339 | 0.387 | 0.312 | 0.218 | 0.399 | 0.355 | 0.285 | 0.171 | 0.295 | 0.281 | 0.308 | 0.319 | 0.308
COR-L23 | 0.938 | 0.88 | 0.948 | 1.01 | 0.885 | 0.161 | 0.225 | 0.176 | 0.105 | 0.506 | 0.396 | 0.211 | 0.113 | 0.2 | 0.197 | 0.219 | 0.212 | 0.197
NCI-H1651 | 1.06 | 1.03 | 1.07 | 1.13 | 1.02 | 0.532 | 0.575 | 0.255 | 0.183 | – | 0.849 | 0.553 | 0.227 | 0.633 | 0.561 | 0.56 | 0.685 | 0.582
